Results reported in ChEMBL document CHEMBL1201862, “PubChem BioAssay data set” (2004).
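Results reflect a 48-hour exposure of cells in 96-well plates to compound at five concentrations. Here, GI50 denotes the concentration required for 50% inhibition of growth.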 Activity calls are given as the source filed them. Rule as the data show it: active = GI50 up to about 1.1 µM and inactive = higher.

Tests used:
Test in all cases: inhibition of tumour cell growth, NCI panel, 48 h
[1] = system: 786-0
[2] = system: ACHN
[3] = system: CAKI-1
[4] = system: DU-145
[5] = system: EKVX
[6] = system: HCT-15
[7] = system: HL-60
[8] = system: Hs-578T
[9] = system: K562
[10] = system: KM12
[11] = system: MDA-MB-435
[12] = system: MDA-N
[13] = system: MOLT-4
[14] = system: NCI/ADR-RES
[15] = system: OVCAR-8
[16] = system: SK-MEL-28
[17] = system: SK-MEL-2
[18] = system: TK-10
[19] = system: UACC-257
[20] = system: UO-31

| SMILES | GI50 [1] | GI50 [2] | GI50 [3] | GI50 [4] | GI50 [5] | GI50 [6] [µM] | GI50 [7] | GI50 [8] | GI50 [9] | GI50 [10] | GI50 [11] | GI50 [12] | GI50 [13] | GI50 [14] | GI50 [15] | GI50 [16] | GI50 [17] | GI50 [18] | GI50 [19] | GI50 [20] |
| --- | --- | --- | --- | --- | --- | --- | --- | --- | --- | --- | --- | --- | --- | --- | --- | --- | --- | --- | --- | --- |
| O=C(NC1(C(=O)O)CCCC1)c1ccccc1 | > 100 µM (inactive) | > 100 µM (inactive) | > 100 µM (inactive) | > 100 µM (inactive) | > 100 µM (inactive) | > 100 | > 100 µM (inactive) | > 100 µM (inactive) | > 100 µM (inactive) | > 100 µM (inactive) | > 100 µM (inactive) | > 100 µM (inactive) | > 100 µM (inactive) | > 100 µM (inactive) | > 100 µM (inactive) | > 100 µM (inactive) | > 100 µM (inactive) | > 100 µM (inactive) | > 100 µM (inactive) | > 100 µM (inactive) |
| O=C(O)c1cccc(S(=O)(=O)NCCO)c1 | > 100 µM (inactive) | > 100 µM (inactive) | > 100 µM (inactive) | > 100 µM (inactive) | > 100 µM (inactive) | > 100 | > 100 µM (inactive) | > 100 µM (inactive) | > 100 µM (inactive) | > 100 µM (inactive) | > 100 µM (inactive) | > 100 µM (inactive) | > 100 µM (inactive) | > 100 µM (inactive) | > 100 µM (inactive) | > 100 µM (inactive) | > 100 µM (inactive) | > 100 µM (inactive) | > 100 µM (inactive) | > 100 µM (inactive) |
| O=C(O)CCSCc1ccc(I)cc1 | > 100 µM (inactive) | > 100 µM (inactive) | > 100 µM (inactive) | > 100 µM (inactive) | > 100 µM (inactive) | > 100 | > 100 µM (inactive) | > 100 µM (inactive) | > 100 µM (inactive) | > 100 µM (inactive) | > 100 µM (inactive) | > 100 µM (inactive) | > 100 µM (inactive) | > 100 µM (inactive) | > 100 µM (inactive) | > 100 µM (inactive) | > 100 µM (inactive) | > 100 µM (inactive) | > 100 µM (inactive) | > 100 µM (inactive) |
| CC12CC3OC(=O)C1COC14OC5(C2C1=O)C(O)(CCC1C4CC2OC24CC=CC(=O)C14C)C(=O)OC35C (stereo not given) | 13.2 µM (inactive) | 16.4 µM (inactive) | 13 µM (inactive) | 14.6 µM (inactive) | 32 µM (inactive) | 16.4 | 8.04 µM (inactive) | > 100 µM (inactive) | 12.8 µM (inactive) | 17.3 µM (inactive) | 13.6 µM (inactive) | 12.4 µM (inactive) | 15.5 µM (inactive) | 38.1 µM (inactive) | 43.8 µM (inactive) | 8.47 µM (inactive) | 14.5 µM (inactive) | 13.6 µM (inactive) | 13 µM (inactive) | 16.9 µM (inactive) |
| Cc1ccc(C(=O)C(Cl)C(Cl)c2ccc(C)cc2)cc1 (stereo not given) | 2.03 µM (inactive) | 1.72 µM (inactive) | 2.59 µM (inactive) | 5.18 µM (inactive) | 5.42 µM (inactive) | 1.83 | 1.24 µM (inactive) | 21.8 µM (inactive) | 1.49 µM (inactive) | 3.68 µM (inactive) | 2.97 µM (inactive) | 2.21 µM (inactive) | 2.03 µM (inactive) | 2.55 µM (inactive) | 2.72 µM (inactive) | 2.68 µM (inactive) | 16.3 µM (inactive) | 2.99 µM (inactive) | 1.92 µM (inactive) | 2.06 µM (inactive) |
| O=C(O)C1C2c3ccccc3C(c3ccccc32)C1C(=O)NCC1CC1 (stereo not given) | > 100 µM (inactive) | 78 µM (inactive) | > 100 µM (inactive) | 81.1 µM (inactive) | 71.9 µM (inactive) | 48.3 | 24.8 µM (inactive) | 63.5 µM (inactive) | 45.3 µM (inactive) | 55.3 µM (inactive) | 51.2 µM (inactive) | 48.2 µM (inactive) | 29.9 µM (inactive) | 32.4 µM (inactive) | 55 µM (inactive) | > 100 µM (inactive) | 91.6 µM (inactive) | 32.4 µM (inactive) | 19.1 µM (inactive) | 71.4 µM (inactive) |
| O=C(c1ccccc1)C(Nc1ccc2ccccc2c1)c1ccccc1 (stereo not given) | 36.7 µM (inactive) | 48.8 µM (inactive) | > 100 µM (inactive) | 42 µM (inactive) | 17.6 µM (inactive) | 29 | 13.1 µM (inactive) | 40.2 µM (inactive) | 7.36 µM (inactive) | 19.8 µM (inactive) | 4.85 µM (inactive) | 7.05 µM (inactive) | 8.41 µM (inactive) | 25.2 µM (inactive) | 42 µM (inactive) | 49.7 µM (inactive) | 14.2 µM (inactive) | 29 µM (inactive) | 15.3 µM (inactive) | > 65 µM (inactive) |
| COc1ccc(OC)c2c1C[C@@H]1C(C#N)N3[C@H](Cc4c(OC)ccc(OC)c4[C@@H]3C)C(=O)N1[C@H]2C (stereo not given in full) | 3.01 µM (inactive) | 2.8 µM (inactive) | 4.72 µM (inactive) | 22.4 µM (inactive) | 5.77 µM (inactive) | 3.08 | 1.85 µM (inactive) | 4.42 µM (inactive) | 2.27 µM (inactive) | 2.77 µM (inactive) | 3.33 µM (inactive) | 4.33 µM (inactive) | 2.43 µM (inactive) | 4.12 µM (inactive) | 2.38 µM (inactive) | 3.03 µM (inactive) | 2.16 µM (inactive) | 3.57 µM (inactive) | 2.51 µM (inactive) | 2.25 µM (inactive) |
| C=C1C(=O)OC2/C=C(\C)CC/C=C(\C)CC(OC(=O)/C(=C/CO)CO)[C@@H]12 (stereo not given in full) | 4.84 µM (inactive) | 6.21 µM (inactive) | 4.12 µM (inactive) | 20 µM (inactive) | 15.2 µM (inactive) | 5.87 | 2.72 µM (inactive) | 27.2 µM (inactive) | 2.65 µM (inactive) | 18.1 µM (inactive) | 5.75 µM (inactive) | 5.45 µM (inactive) | 2.14 µM (inactive) | 20 µM (inactive) | 1.98 µM (inactive) | 15 µM (inactive) | 16.9 µM (inactive) | 5.51 µM (inactive) | 7.85 µM (inactive) | 11.6 µM (inactive) |
| COc1cccc2c1C(=O)c1c(O)c3c(c(O)c1C2=O)C[C@@](O)(C(=O)CO)CC3OC1CC(N)C(OC2CCCCO2)C(C)O1 (stereo not given in full) | 0.272 µM (active) | 0.24 µM (active) | 0.916 µM (active) | 0.0031 µM (active) | 1.39 µM (inactive) | 1.61 | 0.207 µM (active) | 0.164 µM (active) | 0.646 µM (active) | 0.0399 µM (active) | 0.0807 µM (active) | 0.124 µM (active) | 0.0315 µM (active) | 0.959 µM (active) | 0.35 µM (active) | 1.5 µM (inactive) | 1.85 µM (inactive) | 1.37 µM (inactive) | 1.17 µM (inactive) | 0.762 µM (active) |
| CNc1ccc(-c2nc3cc(C)ccc3o2)cc1 | 47.3 µM (inactive) | 57.3 µM (inactive) | > 100 µM (inactive) | > 100 µM (inactive) | 32.4 µM (inactive) | > 100 | > 100 µM (inactive) | 64.6 µM (inactive) | > 100 µM (inactive) | > 100 µM (inactive) | > 100 µM (inactive) | > 100 µM (inactive) | 34.9 µM (inactive) | 64.6 µM (inactive) | 58.1 µM (inactive) | > 100 µM (inactive) | > 100 µM (inactive) | 67.8 µM (inactive) | > 100 µM (inactive) | 72.3 µM (inactive) |
